Data reported in the supplement of paper PMC10307832.

Legend:
Experiment in all cases: relative viability (nuclei count vs DMSO), 5 days (fraction); higher = more cells survive
[1] = compound: Cc1ccc2nc(NCCN)c3ncc(C)n3c2c1 + COc1cc2c(Oc3ccc(NC(=O)C4(C(=O)Nc5ccc(F)cc5)CC4)cc3F)ccnc2cc1OCCCN1CCOCC1 [Foretinib] (partner 0.25 µM)
In short: (§1)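 Lung cancer cell lines were seeded in 1536-well plates and dosed by pin tool the next day, with either a single drug or a fixed anchor-drug dose combined with five library-drug doses (not always all listed) spaced in √10 steps. Five days later, one step fixed the cells and stained their nuclei (final 0.05% Triton X-100, 1% formaldehyde, 1 ug/ml Hoechst), and nuclei were counted on 4× images. Relative viability is the nuclei count in treated wells divided by the count in vehicle wells, and each value is the median of duplicate plates.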

[2] = compound: Cc1ccc2nc(NCCN)c3ncc(C)n3c2c1 + C[C@]1(O)C[C@@H](c2nc(-c3ccc4ccc(-c5ccccc5)nc4c3)c3c(N)nccn32)C1 [Linsitinib] (partner 1 µM)
In short: as §1

[3] = compound: O=C(/C=C/c1ccccc1)NC(NC(=S)Nc1cccc2cccnc12)C(Cl)(Cl)Cl [Salubrinal] + CS(=O)(=O)N1CCN(Cc2cc3nc(-c4cccc5[nH]ncc45)nc(N4CCOCC4)c3s2)CC1 [Pictilisib] (partner 1 µM)
In short: as §1

[4] = compound: Cc1ccc2nc(NCCN)c3ncc(C)n3c2c1 + C[C@@H](Oc1cc(-c2cnn(C3CCNCC3)c2)cnc1N)c1c(Cl)ccc(F)c1Cl [Crizotinib] (partner 1 µM)
In short: as §1

Cell Line	relative viability ([1]; first compound 0.04 µM)	relative viability ([1]; first compound 0.1265 µM)	relative viability ([1]; first compound 0.4 µM)	relative viability ([1]; first compound 1.265 µM)	relative viability ([1]; first compound 4 µM)	relative viability ([2]; first compound 0.04 µM)	relative viability ([2]; first compound 0.1265 µM)	relative viability ([2]; first compound 0.4 µM)	relative viability ([2]; first compound 1.265 µM)	relative viability ([2]; first compound 4 µM)	relative viability ([3]; first compound 0.08 µM)	relative viability ([3]; first compound 0.253 µM)	relative viability ([3]; first compound 0.8 µM)	relative viability ([3]; first compound 2.53 µM)	relative viability ([3]; first compound 8 µM)	relative viability ([4]; first compound 0.04 µM)	relative viability ([4]; first compound 0.1265 µM)	relative viability ([4]; first compound 0.4 µM)	relative viability ([4]; first compound 1.265 µM)	relative viability ([4]; first compound 4 µM)
NCI-H1793	0.79	0.68	0.672	0.615	0.748	1.04	0.951	0.789	0.744	0.845	0.309	0.319	0.306	0.316	0.285					
NCI-H1299	1.12	1.14	1.09	1.05	1	1.01	0.925	0.962	0.979	0.924	0.911	0.704	0.874	0.698	0.66	0.9	0.937	0.951	0.917	0.659
EBC-1	0.0984	0.102	0.098	0.0921	0.0989	1.08	1.13	0.874	0.866	0.793	0.332	0.373	0.4	0.273	0.248	0.219	0.204	0.206	0.207	0.17
